The assay concerns mice, P1798 lymphosarcoma sc, survival or tumor weight T/C. In words: NCI In Vivo Anticancer Drug Screen. Data for tumor model P1798 Lymphosarcoma (subcutaneous) in unknown mice. As to the method:
The antitumor activity of compounds was measured in mice bearing transplantable tumors. Survival or tumor size were measured and the results are expressed as the measurement made in the treated group (T) divided by the measurement made in the vehicle treated control group (C). The tumor model used in this assay is P1798 Lymphosarcoma (subcutaneous) in unknown mice

Setting [1] is: endpoint: mean tumor weight, dose: 5.0 mg/kg/injection, schedule: Q01DX010 (ip), vehicle: saline, higher = larger tumour.
[2] abbreviates: endpoint: mean tumor weight, dose: 6.25 mg/kg/injection, schedule: Q01DX010 (ip), vehicle: carboxymethylcellulose (CMC), higher = larger tumour.
[3] abbreviates: endpoint: mean tumor weight, dose: 12.5 mg/kg/injection, schedule: Q01DX010 (ip), vehicle: carboxymethylcellulose (CMC), higher = larger tumour.
The mark [4] stands for this setting: endpoint: mean tumor weight, dose: 25.0 mg/kg/injection, schedule: Q01DX010 (ip), vehicle: carboxymethylcellulose (CMC), higher = larger tumour.
[5] abbreviates: endpoint: mean tumor weight, dose: 125.0 mg/kg/injection, schedule: Q01DX010 (ip), vehicle: carboxymethylcellulose (CMC), higher = larger tumour.
[6] abbreviates: endpoint: mean tumor weight, dose: 62.5 mg/kg/injection, schedule: Q01DX010 (sc), vehicle: steriod suspending solution, higher = larger tumour.
Where [7] appears, read: endpoint: mean tumor weight, dose: 31.0 mg/kg/injection, schedule: Q01DX010 (ip), vehicle: carboxymethylcellulose (CMC), higher = larger tumour.

The structures appear in SMILES notation. Where “and” joins values, the source holds several entries; their conditions need not be identical. Equal entries are not always repeated. Inconclusive results are not listed.

On to `CC(=O)[C@@]1(O)CC[C@H]2[C@@H]3C[C@H](C)C4=CC(=O)C=C[C@]4(C)[C@@]3(F)[C@@H](O)C[C@@]21C`, for which the T/C (endpoint: mean tumor weight, dose: 8.0 mg/kg/injection, schedule: Q01DX010 (sc), vehicle: steriod suspending solution, higher = larger tumour) is 37 % of control and the T/C (endpoint: mean tumor weight, dose: 16.0 mg/kg/injection, schedule: Q01DX010 (sc), vehicle: steriod suspending solution, higher = larger tumour) is 18 % of control.
`O=c1[nH]cc(F)c(=O)[nH]1`: the T/C runs as follows: (endpoint: mean tumor weight, dose: 2.0 mg/kg/injection, schedule: Q01DX010 (ip), vehicle: saline, higher = larger tumour) 119 % of control; (endpoint: mean tumor weight, dose: 2.5 mg/kg/injection, schedule: Q01DX015 (ip), vehicle: carboxymethylcellulose (CMC), higher = larger tumour) 108 % of control; under setting [1], 36 % of control; (endpoint: mean tumor weight, dose: 6.3 mg/kg/injection, schedule: Q01DX010 (ip), vehicle: saline, higher = larger tumour) 44 % of control; (endpoint: mean tumor weight, dose: 10.0 mg/kg/injection, schedule: Q01DX015 (ip), vehicle: carboxymethylcellulose (CMC), higher = larger tumour) 119 % of control; (endpoint: mean tumor weight, dose: 12.5 mg/kg/injection, schedule: Q01DX010 (ip), vehicle: saline, higher = larger tumour) 27 % of control. The T/C by setting is: (endpoint: mean tumor weight, dose: 40.0 mg/kg/injection, schedule: Q01DX001 (ip), vehicle: carboxymethylcellulose (CMC), higher = larger tumour) 71 % of control; (endpoint: mean tumor weight, dose: 80.0 mg/kg/injection, schedule: Q01DX001 (ip), vehicle: carboxymethylcellulose (CMC), higher = larger tumour) 69 % of control; (endpoint: median survival time, dose: 5.0 mg/kg/injection, schedule: Q01DX010 (ip), vehicle: saline, higher = longer survival) 97 % of control and 103 % of control (2×); (endpoint: median survival time, dose: 10.0 mg/kg/injection, schedule: Q01DX010 (ip), vehicle: saline, higher = longer survival) 117 % of control (2×) and 103 % of control; (endpoint: median survival time, dose: 20.0 mg/kg/injection, schedule: Q01DX010 (ip), vehicle: saline, higher = longer survival) 116 % of control and 39 % of control; (endpoint: median survival time, dose: 40.0 mg/kg/injection, schedule: Q01DX010 (ip), vehicle: saline, higher = longer survival) 24 % of control and 28 % of control. Besides, the T/C (endpoint: median survival time, dose: 80.0 mg/kg/injection, schedule: Q01DX010 (ip), vehicle: saline, higher = longer survival) is 26 % of control.
Take `O=C(O)C(=O)c1ccc(-c2ccccc2)cc1`: the T/C is 82 % of control (endpoint: mean tumor weight, dose: 31.0 mg/kg/injection, schedule: Q01DX010 (ip), vehicle: methylcellulose (MC), higher = larger tumour); 87 % of control (endpoint: mean tumor weight, dose: 62.5 mg/kg/injection, schedule: Q01DX010 (ip), vehicle: methylcellulose (MC), higher = larger tumour); 106 % of control (endpoint: mean tumor weight, dose: 125.0 mg/kg/injection, schedule: Q01DX010 (ip), vehicle: methylcellulose (MC), higher = larger tumour).
On to `O=C(O)CCCc1ccc(N(CCCl)CCCl)cc1`, for which the T/C runs as follows: (endpoint: mean tumor weight, dose: 3.12 mg/kg/injection, schedule: Q01DX010 (ip), vehicle: carboxymethylcellulose (CMC), higher = larger tumour) 86 % of control; under setting [2], 89 % of control; under setting [3], 104 % of control; under setting [4], 73 % of control.
In the case of `Nc1ncnc2[nH]ncc12`, the T/C is, setting by setting: under setting [2], 73 % of control; under setting [3], 64 % of control.
Turning to `CS(=O)(=O)OCCCCOS(C)(=O)=O`, the T/C (endpoint: mean tumor weight, dose: 2.0 mg/kg/injection, schedule: Q01DX010 (ip), vehicle: methylcellulose (MC), higher = larger tumour) was 74 % of control and 85 % of control; the T/C (endpoint: mean tumor weight, dose: 4.0 mg/kg/injection, schedule: Q01DX010 (ip), vehicle: methylcellulose (MC), higher = larger tumour) was 95 % of control; the T/C (endpoint: mean tumor weight, dose: 8.0 mg/kg/injection, schedule: Q01DX010 (ip), vehicle: methylcellulose (MC), higher = larger tumour) is 117 % of control and 92 % of control; the T/C (endpoint: mean tumor weight, dose: 16.0 mg/kg/injection, schedule: Q01DX010 (ip), vehicle: methylcellulose (MC), higher = larger tumour) is 50 % of control.
For the compound `OCC1OC(n2cnc3c(Cl)ncnc32)C(O)C1O` (stereo not given), the T/C was 104 % of control (endpoint: mean tumor weight, dose: 62.5 mg/kg/injection, schedule: Q01DX010 (ip), vehicle: carboxymethylcellulose (CMC), higher = larger tumour); 107 % of control under setting [5]; 92 % of control (endpoint: mean tumor weight, dose: 250.0 mg/kg/injection, schedule: Q01DX010 (ip), vehicle: carboxymethylcellulose (CMC), higher = larger tumour); 91 % of control and 95 % of control (endpoint: mean tumor weight, dose: 500.0 mg/kg/injection, schedule: Q01DX010 (ip), vehicle: carboxymethylcellulose (CMC), higher = larger tumour); 79 % of control (endpoint: mean tumor weight, dose: 1000.0 mg/kg/injection, schedule: Q01DX010 (ip), vehicle: carboxymethylcellulose (CMC), higher = larger tumour).
`Cn1cnc([N+](=O)[O-])c1Sc1nc(N)nc2nc[nH]c12`: the T/C is, setting by setting: (endpoint: mean tumor weight, dose: 2.5 mg/kg/injection, schedule: Q01DX010 (ip), vehicle: saline, higher = larger tumour) 53 % of control; under setting [1], 62 % of control; (endpoint: mean tumor weight, dose: 10.0 mg/kg/injection, schedule: Q01DX010 (ip), vehicle: saline, higher = larger tumour) 37 % of control.
For `C1CN1c1nc(N2CC2)nc(N2CC2)n1`, the T/C was 77 % of control and 78 % of control (endpoint: mean tumor weight, dose: 0.06 mg/kg/injection, schedule: Q01DX010 (ip), vehicle: saline, higher = larger tumour); 78 % of control and 86 % of control (endpoint: mean tumor weight, dose: 0.12 mg/kg/injection, schedule: Q01DX010 (ip), vehicle: saline, higher = larger tumour); 44 % of control and 54 % of control (endpoint: mean tumor weight, dose: 0.25 mg/kg/injection, schedule: Q01DX010 (ip), vehicle: saline, higher = larger tumour).
Take `CC/C(=C(/CC)c1ccc(O)cc1)c1ccc(O)cc1`: the T/C by setting is: under setting [6], 64 % of control; (endpoint: mean tumor weight, dose: 125.0 mg/kg/injection, schedule: Q01DX010 (sc), vehicle: steriod suspending solution, higher = larger tumour) 83 % of control; (endpoint: mean tumor weight, dose: 500.0 mg/kg/injection, schedule: Q01DX010 (sc), vehicle: steriod suspending solution, higher = larger tumour) 39 % of control.
With `O=c1[nH]c2cc(Cl)c(Cl)cc2o1`, the T/C by setting is: under setting [3], 78 % of control; under setting [4], 76 % of control; (endpoint: mean tumor weight, dose: 50.0 mg/kg/injection, schedule: Q01DX010 (ip), vehicle: carboxymethylcellulose (CMC), higher = larger tumour) 117 % of control; (endpoint: mean tumor weight, dose: 100.0 mg/kg/injection, schedule: Q01DX010 (ip), vehicle: carboxymethylcellulose (CMC), higher = larger tumour) 61 % of control.
As for `CCC1=C(c2cc(Cl)c3ccccc3c2OCC(=O)O)OC(CC)(C(=O)c2cc(Cl)c3ccccc3c2OCC(=O)O)CC1` (stereo not given), the T/C was 94 % of control (endpoint: mean tumor weight, dose: 30.0 mg/kg/injection, schedule: Q01DX010 (ip), vehicle: steriod suspending solution, higher = larger tumour); 112 % of control (endpoint: mean tumor weight, dose: 60.0 mg/kg/injection, schedule: Q01DX010 (ip), vehicle: steriod suspending solution, higher = larger tumour); 65 % of control (endpoint: mean tumor weight, dose: 120.0 mg/kg/injection, schedule: Q01DX010 (ip), vehicle: steriod suspending solution, higher = larger tumour); 85 % of control (endpoint: mean tumor weight, dose: 240.0 mg/kg/injection, schedule: Q01DX010 (ip), vehicle: steriod suspending solution, higher = larger tumour).
On to `C[C@]12C=CC(=O)C=C1CC[C@@H]1[C@@H]2[C@@H](O)C[C@@]2(C)[C@H]1CC[C@]2(O)C(=O)CO`, for which the T/C runs as follows: (endpoint: mean tumor weight, dose: 31.3 mg/kg/injection, schedule: Q01DX010 (sc), vehicle: steriod suspending solution, higher = larger tumour) 22 % of control; under setting [6], 8 % of control.
Consider `CCC(=O)O[C@H]1CC[C@H]2[C@@H]3CCC4=CC(=O)CC[C@]4(C)[C@H]3CC[C@]12C`, for which the T/C reads like this: (endpoint: mean tumor weight, dose: 150.0 mg/kg/injection, schedule: Q01DX010 (sc), vehicle: steriod suspending solution, higher = larger tumour) 108 % of control; (endpoint: mean tumor weight, dose: 300.0 mg/kg/injection, schedule: Q01DX010 (sc), vehicle: steriod suspending solution, higher = larger tumour) 116 % of control; (endpoint: mean tumor weight, dose: 600.0 mg/kg/injection, schedule: Q01DX010 (sc), vehicle: steriod suspending solution, higher = larger tumour) 104 % of control.
For the compound `C[C@H]1C(=O)O[C@@H]2CCN3CC=C(COC(=O)[C@](C)(O)[C@@]1(C)O)[C@H]23`, the T/C is 73 % of control (endpoint: mean tumor weight, dose: 3.75 mg/kg/injection, schedule: Q01DX010 (ip), vehicle: carboxymethylcellulose (CMC), higher = larger tumour); 68 % of control (endpoint: mean tumor weight, dose: 7.5 mg/kg/injection, schedule: Q01DX010 (ip), vehicle: carboxymethylcellulose (CMC), higher = larger tumour); 44 % of control (endpoint: mean tumor weight, dose: 15.0 mg/kg/injection, schedule: Q01DX010 (ip), vehicle: carboxymethylcellulose (CMC), higher = larger tumour); 23 % of control (endpoint: mean tumor weight, dose: 30.0 mg/kg/injection, schedule: Q01DX010 (ip), vehicle: carboxymethylcellulose (CMC), higher = larger tumour).
On to `CC(=O)O[C@]1(C(C)=O)CC[C@H]2[C@@H]3C[C@H](C)C4=CC(=O)C=C[C@]4(C)[C@@]3(F)[C@@H](O)C[C@@]21C`, for which the T/C is, setting by setting: (endpoint: mean tumor weight, dose: 5.0 mg/kg/injection, schedule: Q01DX010 (sc), vehicle: steriod suspending solution, higher = larger tumour) 87 % of control; (endpoint: mean tumor weight, dose: 10.0 mg/kg/injection, schedule: Q01DX010 (sc), vehicle: steriod suspending solution, higher = larger tumour) 106 % of control; (endpoint: mean tumor weight, dose: 20.0 mg/kg/injection, schedule: Q01DX010 (sc), vehicle: steriod suspending solution, higher = larger tumour) 74 % of control; (endpoint: mean tumor weight, dose: 40.0 mg/kg/injection, schedule: Q01DX010 (sc), vehicle: steriod suspending solution, higher = larger tumour) 47 % of control.
Turning to `OCC1OC(n2cnc3c(=S)nc[nH]c32)C(O)C1O` (stereo not given), the T/C runs as follows: (endpoint: mean tumor weight, dose: 4.0 mg/kg/injection, schedule: Q01DX010 (ip), vehicle: carboxymethylcellulose (CMC), higher = larger tumour) 115 % of control; (endpoint: mean tumor weight, dose: 8.0 mg/kg/injection, schedule: Q01DX010 (ip), vehicle: carboxymethylcellulose (CMC), higher = larger tumour) 67 % of control; (endpoint: mean tumor weight, dose: 16.0 mg/kg/injection, schedule: Q01DX010 (ip), vehicle: carboxymethylcellulose (CMC), higher = larger tumour) 45 % of control; under setting [7], 82 % of control.
On to `CCCSc1ncnc2nc[nH]c12`, for which the T/C runs as follows: under setting [7], 84 % of control; (endpoint: mean tumor weight, dose: 62.0 mg/kg/injection, schedule: Q01DX010 (ip), vehicle: carboxymethylcellulose (CMC), higher = larger tumour) 70 % of control; under setting [5], 51 % of control and 52 % of control.

For the origin of these results see PubChem BioAssay AID290 (DTP/NCI, 2004).
